Data reported in patent US20040138156A1, “Therapeutic regulation of deoxyribonuclease-1-like-3 activity” (priority 2002, published 2004).
“Also recorded” adds a separate entry of the source.

What was measured:
D1L3 = settings: cited from earlier work
bone marrow macrophages = experiment: Induction of D1L3 in cultured bone marrow macrophages (anti-D1L3 immunoblot, RDA, zymogram); assay type: cell-based, C57BL mice; settings: 100 U/ml for the interferons
Protocol: FIG. 22. Normal and induced expression of D1L3 in murine macrophages. […] In anti-D1L3 blots of cell lysates, the protein is seen both as a ^˜34 kDa uncleaved molecule and a ^˜28 kDa cleaved molecule. […] Cells were plated on serum-coated tissue culture dishes and incubated overnight, the next morning, non-adherent cells (N) were rinsed vigorously with PBS 1×, and both adeherent (A) and non-adherent cells (N) from C57BL, NZB/W, BXSB, and MRL were lysed and immunoblotted with anti-D1L3. While the ^˜34 kDa size band consistent with uncleaved D1L3 is present in both adherent and non-adherent, the cleaved form (^˜28 kDa) is present almost exclusively in the adherent population of presumed macrophages. Also noticable are the higher levels of expression of D1L3 in the 3 latter lupus strains. Panel B: Untreated bone marrow macrophages from NZB/WF1 mice have a much higher baseline expression expression of D1L3 than C57BL macrophages.
Induction is present in macrophages from both strain though the absolute level of induction appears greater in C57BL than in the SLE-prone NZB/W F1 strain. NZB/W protein loads in Ifn-γ-negative lane is slightly underloaded relative to actin. Panel C: Bone marrow macrophages isolated from bone marrow (via adherence) from MRL and C57BL mice, and cultured for 2 days in vitro, were induced by Ifn-γ. […] No induction of D1L3, RDA-DNASE, or zymographic DNASE activity is evident upon tratement with 100 U/ml of Ifn-alpha. […] Panel D: Bone marrow macrophages from C57BL and MRL mice cultured for 7 days in the presence of GM-CSF were induced with Ifn-γ, again showing the higher baseline levels of 28 kDa enzyme in the lupus prone strain, and in C57BL showing induction of levels aftern Ifn-γ. […]
(§1) Assays of Murine Cells. […] Splenocytes were counted using a hemochromocytometer, and plated at 2 million cells/ml on plastic 6-well Falcon tissue culture dishes (Becton Dickinson) in RPMI with 10% FCS. […]

[1] = test system: bone marrow-derived macrophages; experiment: BT activity of media conditioned by Ifn-γ treated bone marrow-derived macrophages, overlaid on HeLa cells; assay type: cell-based, C57BL mice; settings: 100 U/ml; b134: 1000 U/ml vs 100U/ml
Excerpt: FIG. 29. Media conditioned by Ifn-γ treated macrophages from C57BI, but not NZB/W F1 mice is able to confer an in vitro barrier to liposomal gene transduction (BT). Panel A: Media conditioned by interferon-g (Ifn-γ) treated bone marrow-derived macrophages from C57 BL confers a barrier to liposomal transfection to HeLa. […] Panel B: As interferon dose increased, the ability by C57BL macrophages to confer a barrier to transfection increased. In the absence of Ifn-γ, macrophages confer a weaker barrier. Panel C: Interferon gamma induces both DNASE activity by RDA and a DNASE band compatible with DNASE1L3 at 28 kD, plus induces a BT activity. Samples were from macrophages from two C57BL mice (B1 and B2). In the left register is pre- and post interferon RDAs, in the middle register, pre and post interferon, and in the right register are the BT assays (GFP immunoblots of tranfected HeLa cells) on HeLa cells, including HeLa cells treated directly with interferon gamma for 48 hours. Media conditioned for 48 hours. Panel D: BT activity in macrophage-conditioned media from NZB/W F1 (NZ) or C57BL (BL). […]
as §1

HeLa cells = experiment: BT assay: liposomal N1-eGFP transfection of HeLa cells in DNASE-conditioned media, GFP immunoblot; assay type: cell-based; settings: equivalent doses of Ifn-γ, no macrophages
Protocol: In the main assay, an eukaryotic marker such as green fluorescent protein (GFP) expression plasmid complexed with a lipid reagent is transfected into HeLa cells incubated in control media, D1L3-conditioned media, or D1-conditioned media (FIG. 4). The assay is not limited to the use of GFP as a marker, but could use any of many expressed biomarkers encoded by nucleotides that can be assayed either immunochemistry, fluorescent detection, or enzymatic detectection, and these include but are not circumscribed to luciferase, chloramphenicol acetyl-transferase, antibiotic or chemical resistance genes, Beta-galactosidase, FLAG-, myc-hemaglutinnin-, or other epitope tagged molecules, as well as other markers of gene or nucleotide transduction. The endpoint of the assay is the detection of a synthesized protein, but could easily have been the detection of a transcribed gene product, since the assay ultimately measures the ability of D1L3 added the media/milieu overlaying the cells to block the ultimate association of an expressible plasmid with the transcriptional machinery.
Transfection Reagents and Resistance Assays. Lipofection of respective pcDNA3.1-D1 or -D3 ([…] purified with Promega Wizard Plus DNA system) was performed independently into 1-2 million HeLa cells, which produce a low background of secreted nuclease activity, when grown in DMEM with 10% FCS (LifeTech) in 6 well culture plates (Becton-Dickinson). […] Media of the transfected cells were conditioned for 36-48 hours and served as source of the respective enzymes. Nuclease activity in conditioned supernatant was measured by RDAs, zymograms and by testing activity against supercoiled pBluescript (Stratagene).
To test for the ability of the nucleases to block transfection, the media in individual wells of naive HeLa cells were replaced with conditioned media, and cells transfected with […] of N1-eGFP plasmid (Clontech) using various transfection reagents (FIG. 11) and their respective protocols. GFP expression by immunoblot directly correlated with transfection efficiency in present experiments. Thus, transfection efficiency was compared by densitometric analysis of GFP immunoblots.
GFP expression was also examined by fluorescent microscopy using a FITC filter. For microscopy, cells were fixed for 5 minutes in 4% paraformaldehyde dissolved into 1% PBS.
Antibody Reagents and Immunoblotting. After 24-36 hours, cells transfected with N1-eGFP were lysed in SDS-buffer and immunoblotted for expression with anti-GFP at 1:5000 dilution (Clontech). To confirm nearly equal protein loading per lane, anti-β-actin monoclonal antibody at 1:7,000 dilution (Sigma) were prepared. For immunoblots, […] protein was eletrophoretically separated by 12% SDS-PAGE gel, followed by electrotransfer to Immobilon-P membranes (Millipore) for expression studies. Immunoblotting was performed using ECL detection (Amersham).
Transfection efficiency was compared, wherever possible, by pixel densitometry of the scanned images using Scion Image 4.02 software.

| Compound | effect on D1L3 DNASE activity (D1L3) | induction of D1L3 in macrophages (bone marrow macrophages) | BT activity of media conditioned by treated macrophages [1] | BT of HeLa cells treated with Ifn-γ or of media conditioned by them (HeLa cells) |
| --- | --- | --- | --- | --- |
| O=C(O)CN(CCN(CC(=O)O)CC(=O)O)CC(=O)O [EDTA] | block D1L3 DNASE activity |  |  |  |
| Ifn-γ: interferon-gamma (Genzyme), macrophage activator |  | inducible; also recorded: significant induction of D1L3 levels | confers BT; also recorded: Increased BT activity | neither confer nor possess a BT |
| [Zn+2] [zinc] | block D1L3 DNASE activity |  |  |  |
